Results as given in ChEMBL document CHEMBL1129947, “(+)-7-Deaza-5'-noraristeromycin as an anti-trypanosomal agent” (J Med Chem, 1997).

Key:
Adenosylhomocysteinase = Adenosylhomocysteinase (Mus musculus, UniProt P50247); test: In vitro inhibitory concentration against purified S-Adenosyl-homocysteine hydrolase isolated from murine L929 cells
Trypanosoma brucei [1] = test: In vitro inhibitory concentration against Trypanosoma brucei rhodesiense strain KETRI 243-As-103; type: functional, organism-based
Trypanosoma brucei [2] = test: In vitro inhibitory concentration against Trypanosoma brucei LAB 110 EATRO test strain; type: functional, organism-based
Trypanosoma brucei [3] = test: In vitro inhibitory concentration against Trypanosoma brucei rhodesiense strain KETRI 243; type: functional, organism-based
Trypanosoma brucei [4] = test: In vitro inhibitory concentration against Trypanosoma brucei rhodesiense strain KETRI 269; type: functional, organism-based

Sequence of Adenosylhomocysteinase (P50247 whole entry): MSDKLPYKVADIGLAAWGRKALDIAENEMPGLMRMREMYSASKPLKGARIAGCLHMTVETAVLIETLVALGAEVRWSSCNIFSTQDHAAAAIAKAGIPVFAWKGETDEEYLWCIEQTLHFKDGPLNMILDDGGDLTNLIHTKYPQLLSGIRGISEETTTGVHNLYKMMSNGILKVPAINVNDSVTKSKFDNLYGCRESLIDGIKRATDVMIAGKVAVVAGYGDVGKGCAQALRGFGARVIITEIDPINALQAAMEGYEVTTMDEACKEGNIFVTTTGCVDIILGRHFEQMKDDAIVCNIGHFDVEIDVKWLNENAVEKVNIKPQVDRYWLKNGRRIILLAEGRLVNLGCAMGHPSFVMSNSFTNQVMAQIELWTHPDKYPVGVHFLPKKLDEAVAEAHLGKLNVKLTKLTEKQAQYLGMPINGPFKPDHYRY

| IC50 (Adenosylhomocysteinase) [nM] | IC50 (Trypanosoma brucei [1]) [nM] | IC50 (Trypanosoma brucei [2]) [nM] | IC50 (Trypanosoma brucei [3]) [nM] | IC50 (Trypanosoma brucei [4]) [nM] | SMILES |
| --- | --- | --- | --- | --- | --- |
| > 500000 | – | – | – | – | Nc1ncnc2c1ccn2[C@@H]1C[C@H](O)[C@@H](O)[C@H]1O |
| > 500000 | 5300 | 165 | 165 | 165 | Nc1ncnc2c1ccn2[C@H]1C[C@@H](O)[C@H](O)[C@@H]1O |
